Source: paper PMC5355811 (Nature Communications, 2017)
Like-named read-outs stand apart in the source and are kept apart here.

Tests used:
[1] = system: cell surface EGFR in PC9 triple-mutant cells; experiment: Flow cytometry of cell surface EGFR; type: cell-based; details: 0, 6, 24 and 48 h
[2] = system: PC9 T790M cells (T790M/del19); experiment: CellTiter-Glo cell viability assay, PC9 T790M; type: cell-based; details: read-out: IC50, PC9 T790M
Protocol: (§1) Three-day cell viability assays were carried out by plating 2,000, 1,500 and 2,000 cells per well of Ba/F3, PC9 or MGH121, respectively, into black transparent-bottom 96-well plates. On the same day for Ba/F3 cells and the following day for PC9 and MGH121 cells, the cells were treated with each TKI across a 10-dose range from 0.3 nmol l^−1 to 10 μmol l^−1. After 72 h of drug treatment, cell viability was measured using the CellTiter-Glo assay (Promega).

[3] = system: PC9 triple-mutant cells (C797S/T790M/del19); experiment: CellTiter-Glo cell viability assay, PC9 triple mutant; type: cell-based; details: read-out: IC50, PC9 triple
Protocol: as §1

[4] = system: MGH121-res2 cells (C797S/T790M/del19); experiment: cells; type: cell-based; details: Homo sapiens, MGH121, 72 h, read-out: IC50, MGH121-res2
Protocol: as §1

[5] = system: MGH121 parental cells (T790M/del19); experiment: cells; type: cell-based; details: Homo sapiens, MGH121, 72 h, read-out: IC50, MGH121-pt
Protocol: as §1

[6] = target: EGFR-C797S/T790M/L858R (Homo sapiens, UniProt P00533, C797S/L858R/T790M); details: inhibition curves shifted with ATP concentration, triple-mutant and wild-type EGFR
EGFR-C797S/T790M/L858R, sequence (P00533 712-979 T790M/C797S/L858R): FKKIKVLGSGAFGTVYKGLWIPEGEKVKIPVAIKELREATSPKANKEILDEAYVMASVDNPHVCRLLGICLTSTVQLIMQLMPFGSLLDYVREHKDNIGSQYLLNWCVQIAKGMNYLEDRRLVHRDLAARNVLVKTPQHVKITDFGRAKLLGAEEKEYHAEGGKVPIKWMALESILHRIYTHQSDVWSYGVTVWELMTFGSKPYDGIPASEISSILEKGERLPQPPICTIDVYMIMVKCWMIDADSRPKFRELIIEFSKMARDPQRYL
Protocol: The appropriate amount of target proteins calculated on the basis of the ADP-Glo assay manufacturer's protocol was incubated in 96-well half area white plates with serially diluted inhibitor over a 10-dose range from 0.0002, nM to 10 μM for 10 min at room temperature. ATP at concentration of 1, 10, 100 and 1,000 nM was mixed with 100 μg ml^−1 substrate and added to a kinase protein–inhibitor mixture, and then incubated for 60 min at room temperature. After the kinase reaction, an equal volume of ADP-Glo Reagent was added to terminate the kinase reaction, and the remaining ATP was depleted. The Kinase Detection Reagent was added both to convert ADP to ATP and to allow the newly synthesized ATP to be measured using the luciferase/luciferin reaction. The light generated was measured using a luminometer.

[7] = system: phosphorylation of EGFR in Ba/F3 cells expressing EGFR-C797S/T790M/del19; experiment: Western blotting of EGFR signalling, Ba/F3 triple-del19; type: cell-based; details: 6 h
Protocol: (§2) Tumour tissues or cells grown under the specified conditions were washed with cold PBS before addition of the SDS lysis buffer (100 mM Tris, 1% SDS, 10% glycerol). Lysates were transferred to microtubes, boiled for 5 min at 100 °C and then vortexed. Protein quantification was performed using the BCA Protein Assay Reagent (Pierce) according to the manufacturer's protocol. Western blot analyses were conducted after separation by SDS-PAGE and transferred to polyvinylidene difluoride membranes.

[8] = system: Ba/F3 cells of EGFR-C797S/T790M/del19; experiment: Drug sensitivity screening at 100 nM, Ba/F3 EGFR-C797S/T790M/del19; type: cell-based; details: Mus musculus
Protocol: (§3) After the incubation, cell viability was measured using CellTiter-Glo assay. The relative cell viability was calculated as a ratio of each value to that of the DMSO control.

[9] = system: EGFR phosphorylation in PC9 triple-mutant cells; experiment: Western blotting of EGFR signalling, PC9 triple mutant; type: cell-based
Protocol: as §2

[10] = system: Ba/F3 cells of EGFR-T790M/del19; experiment: Drug sensitivity screening at 100 nM, Ba/F3 EGFR-T790M/del19; type: cell-based; details: Mus musculus, BaF3, 72 h, 100 nM inhibitor, 72 h, DMSO = 100; mean of three independent experiments (Fig. 1a data); read-out: Relative cell viability (ratio to DMSO control), del19/T790M
Protocol: as §3

[11] = system: MGH121-res2 (C797S/T790M/del19) xenograft; experiment: MGH121-res2 xenograft; type: in vivo; details: brigatinib 75 mg kg^−1 po; cetuximab 1 mg per mouse two times a week
Protocol: (a,b) MGH121-res2 expressing EGFR-C797S/T790M/del19 were subcutaneously implanted into SCID-beige mice. […] Tumour volume (V) was calculated as 0.5 × length × width^2, and the body weights (B.W.) of the mice were measured twice weekly. N=6. Results are expressed as mean±s.d.

[12] = 180 mg per day, cited from earlier work
[13] = system: PC9 parent cells (del19); experiment: CellTiter-Glo cell viability assay, PC9 parent; type: cell-based; details: read-out: IC50, PC9 parent
Protocol: as §1

[14] = system: Ba/F3 cells expressing EGFR-L858R; experiment: CellTiter-Glo cell viability assay, Ba/F3 EGFR-L858R; type: cell-based; details: read-out: IC50, Ba/F3 L858R
Protocol: as §1

[15] = system: EGFR-mutated lung cancer; details: patients with EGFR-mutated lung cancer, phase 1/2 trial; cited from earlier work
[16] = system: Ba/F3 cells of EGFR-del19; experiment: Drug sensitivity screening at 100 nM, Ba/F3 EGFR-del19; type: cell-based; details: Mus musculus, BaF3, 72 h, 100 nM inhibitor, 72 h, DMSO = 100; mean of three independent experiments (Fig. 1a data); read-out: Relative cell viability (ratio to DMSO control), del19
Protocol: as §3

[17] = system: Ba/F3 cells expressing EGFR-del19; experiment: CellTiter-Glo cell viability assay, Ba/F3 EGFR-del19; type: cell-based; details: Mus musculus
Protocol: as §1

[18] = system: PC9-triple mutant (C797S/T790M/del19) xenograft
Protocol: (§4) Tumour growth was monitored twice weekly by bilateral caliper measurement, and tumour volume was calculated as 0.5 × length × width × width (mm^3). […] The mice whose implanted tumour size was ranked in the top 5% and bottom 5% were excluded from randomization to minimize the variation of tumour sizes. The mice were treated once daily by oral gavage for the indicated period. Relative tumour volume was calculated by dividing by the tumour volume on day 0. The body weights of the mice were measured twice weekly. Implanted tumours were resected from the mice on day 15 of drug treatment and were fixed with formalin. The mice were euthanized when the tumour size exceeded 700 mm^3 within several days. The investigators performing tumour measurements were not blinded to treatment groups. The sample size (minimum n=6 per treatment group) was selected to ensure satisfactory inter-animal reproducibility. The Mann–Whitney U test was used for the statistical analysis of the mice experiments.

[19] = system: Ba/F3 cells expressing EGFR-T790M/del19; experiment: CellTiter-Glo cell viability assay, Ba/F3 EGFR-T790M/del19; type: cell-based; details: Mus musculus
Protocol: as §1

[20] = system: PC9-T790M (T790M/del19) xenograft; experiment: PC9-T790M xenograft; type: in vivo, Balb-c nu/nu mice; details: osimertinib 50 mg kg^−1, brigatinib 75 mg kg^−1
Protocol: as §4

[21] = system: A431, A549 and H460 cells; experiment: CellTiter-Glo cell viability assay, non-EGFR-mutated cell lines; type: cell-based; details: A431 (EGFR amplification), A549 and H460 (KRAS mutation); 72 h

- IC50 [2]: 244 nM
- IC50 [3]: 599 nM
- IC50 [4]: 592 nM
- IC50 [13]: 133 nM
- IC50 ([14]; Mus musculus, BaF3, 72 h): 207 nM
- IC50 [14]: 133 nM
- IC50 ([17]; BaF3, 72 h, read-out: IC50, Ba/F3 Del19): 43.7 nM
- IC50 ([17]; BaF3, read-out: IC50, Ba/F3 del19): 39.4 nM
- IC50 ([19]; BaF3, 72 h, read-out: IC50, Ba/F3 T790M/del19): 150 nM
- IC50 ([19]; BaF3, read-out: IC50, Ba/F3 T790M/del19): 120 nM
Structure (SMILES): COc1cc(N2CCC(N3CCN(C)CC3)CC2)ccc1Nc1ncc(Cl)c(Nc2ccccc2P(C)(C)=O)n1 [Brigatinib, brigatinib]
- cell surface EGFR level [1]: no reduction
- IC50 [5]: 155 nM
- mode of EGFR kinase inhibition [6]: competitively affected the ATP-binding site of the EGFR kinase domain
- phosphorylation of EGFR and downstream signalling, Ba/F3 triple-del19 [7]: decreased phosphorylation of EGFR and its downstream signalling pathway in a dose-dependent manner
- viability at 0.1 µM ([8]; BaF3, 72 h, 100 nM inhibitor, 72 h, DMSO = 100, mean of three independent experiments (Fig. 1a data)): 59.2%
- inhibition at 0.1 µM ([8]; BaF3, at 100 nM, read-out: growth inhibition against EGFR-triple-del19): ~50%
- EGFR phosphorylation and downstream signalling, PC9 triple-mutant cells [9]: inhibited EGFR phosphorylation and its downstream signalling
- viability at 0.1 µM [10]: 69.2%
- tumour growth, MGH121-res2 xenograft [11]: growth inhibition effect
- plasma concentration in a steady state ([12]; ref 48): 1,694.3 nM
- plasma concentration in a steady state ([12]; ref 49): 1,447 nM
- cases that achieved partial response [15]: two of 42 cases
- viability at 0.1 µM [16]: 10.3%
- toxicity, PC9 triple-mutant xenograft-bearing mice ([18]; body weight, brigatinib 75 mg kg^−1 daily, with or without cetuximab): without explicit toxicity
- tumour growth, PC9 triple-mutant xenograft ([18]; osimertinib 50 mg kg^−1, brigatinib 75 mg kg^−1 once daily oral, cetuximab 1 mg per mouse three times a week, panitumumab 0.5 mg per mouse two times a week): significant inhibition of the growth of PC9-triple mutant cells
- phosphorylation of EGFR and downstream signalling in tumour samples ([18]; western blotting of PC9-triple mutant tumours from mice): actually inhibited
- tumour growth, T790M/del19-expressing PC9 xenograft [20]: successfully suppressed the growth
- inhibitory activity (IC50) in cell lines without EGFR mutation [21]: less inhibitory activity to the cell lines without EGFR mutation than afatinib and osimertinib
